Where two headings read alike, the source gives them in different places.

In data set [1] the test system is human breast cancer (MDA-MB-231) xenografts. The class given is in vivo. To be noted: 100 μg/kg/day intraperitoneally for 10 days, followed 20 days, vs PBS or unconjugated Genistein. As for the experimental part:
The tumor diameter was determined daily for 20 days from the start of therapy. Control mice were treated with 0.2 ml of PBS for 10 consecutive days or unconjugated Genistein at a concentration of 500 μg/kg/day for 10 days. P values were determined using Student's t test.

Another data set has as its system MDA-MB-231 cells. Kind of data set: FACS MC540/propidium iodide apoptosis assay. The settings on record: 24 hours. Format: cell-based, human. As for the experimental part: Fluorescence activated cell sorting (FACS) was used to sort MDA-MB-231 cells (breast cancer cells expressing EGF-Rc). The cells were treated with either PBS EFG-Genistein (0.1, 1, and 10 μM) or unconjugated Geninstein (1, 10, and 100 μM) and incubated for 24 hours. The cells were then stained with MC-540 and propidium iodide. Single MC540 fluorescence (S-MC540) indicates the cell is at an early stage of apoptosis. Dual MC540/propidium iodide fluorescence (D-MC540/PI) indicates the cell is at an advanced stage of apoptosis. The total apoptotic fraction (TAF) is calculated as the percentage of MC540 fluorescent cells plus the percentage of MC540/propidium iodide double fluorescent cells.

Data set [2] deals with Neu mediated mammary tumors. The experiment in a line: Prevention of spontaneous breast cancer in Neu/erbB2 transgenic mice. Format: in vivo. As for the experimental part:
Neu/erbB2 transgenic mice were chosen because they overexpress the Neu protooncogene in their mammary glands.
As a control, 29 Neu/erbB2 mice were treated with PBS.

As for “EGF-Genistein: Genistein conjugated to epidermal growth factor (EGF), prepared as in Example 1 of U.S. Pat. No. 5,911,995”, the “tumor progression (tumor diameter)” value in data set [1] (0.5 cm xenograft, FIG. 3A) was “reversed”; in data set [1] (1.0 cm xenograft, FIG. 3B), “slowed”. Moreover, the “% S-MC540 (Single MC540, early stage of apoptosis)” value (“% S-MC540” for short) in the data set with MDA-MB-231 cells (0.1 μM) is reported as 78.8%; in the data set on MDA-MB-231 cells (1 μM) it was 61.0%; in the data set on MDA-MB-231 cells (10 μM), 42.2%. Besides, the “% TAF (total apoptotic fraction: Single MC540 plus Dual MC540/propidium iodide)” value was 98.7% in the data set on MDA-MB-231 cells (0.1 μM), 97.6% in the data set with MDA-MB-231 cells (1 μM) and 98.9% in the data set on MDA-MB-231 cells (10 μM). Moreover, the figures for the “% D-MC540/PI (Dual MC540/propidium iodide, advanced stage of apoptosis)” value with MDA-MB-231 cells (1 μM) and with MDA-MB-231 cells (10 μM) were 36.6% and 56.7%, respectively. Also, the side effects entry in data set [2] (100 μg 1× per week for 10 weeks) is “not associated with any side effects”. Also, in data set [2] (100 μg subcutaneously 1× per week for 10 weeks (5 mg/kg), from 4 months old, n=10), the “mice that developed breast cancer” value stood at 40%.
“EGF: Human epidermal growth factor, six kilodalton 53 amino acid single-chain polypeptide”: in the data set with MDA-MB-231 cells (1 μM), the “% D-MC540/PI (Dual MC540/propidium iodide, advanced stage of apoptosis)” value was determined as 0.8%; the “% S-MC540” value is on record as 5.5%; the “% TAF (total apoptotic fraction: Single MC540 plus Dual MC540/propidium iodide)” value is given as 6.3%. Besides, in the data set with MDA-MB-231 cells (10 μM), the “% D-MC540/PI (Dual MC540/propidium iodide, advanced stage of apoptosis)” value turned out to be 1.2%; the “% S-MC540” value is 9.5%; the “% TAF (total apoptotic fraction: Single MC540 plus Dual MC540/propidium iodide)” value is 10.7%. Also, in the data set on MDA-MB-231 cells (100 μM), the “% D-MC540/PI (Dual MC540/propidium iodide, advanced stage of apoptosis)” value was 2.0%; the “% S-MC540” value is given as 13.5%; the “% TAF (total apoptotic fraction: Single MC540 plus Dual MC540/propidium iodide)” value stood at 15.5%.

These data come from patent publication US20020193319A1, “Use of EGF genistein to prevent development of EGF-receptor expressing cancers” (Parker Hughes Institute, priority 1999, published 2002).
